Measurements taken from ChEMBL document CHEMBL1122903, “Synthesis, in vitro [3H]prazosin displacement, and in vivo activity of 3-aryl-4,5,6,7-tetrahydropyrazolo[4,3-c]pyridines, a new class of antihypertensive agents” (J Med Chem, 1985).

Assays:
Canis familiaris [1] = test: Heart rate after 0 hours of oral administration in renal hypertensive dogs at dose 2 mg/kg; format: functional, Canis lupus familiaris
Canis familiaris [2] = test: Heart rate after 8 hours of oral administration in renal hypertensive dogs at dose 2 mg/kg; format: functional, Canis lupus familiaris
Canis familiaris [3] = test: Heart rate after 4 hours of oral administration in renal hypertensive dogs at dose 0.25 mg/kg; format: functional, Canis lupus familiaris
Canis familiaris [4] = test: Systolic blood pressure after 4 hours of oral administration in renal hypertensive dogs at dose 2 mg/kg; format: functional, Canis lupus familiaris
Canis familiaris [5] = test: Systolic blood pressure after 6 hours of oral administration in renal hypertensive dogs at dose 0.25 mg/kg; format: functional, Canis lupus familiaris
Canis familiaris [6] = test: Heart rate after 6 hours of oral administration in renal hypertensive dogs at dose 0.25 mg/kg; format: functional, Canis lupus familiaris
Canis familiaris [7] = test: Heart rate after 4 hours of oral administration in renal hypertensive dogs at dose 1 mg/kg; format: functional, Canis lupus familiaris
Canis familiaris [8] = test: Peak effect after 8 hours on heart rate after 1 days of oral administration in renal hypertensive dogs at dose 0.5 mg/kg; format: functional, Canis lupus familiaris
Canis familiaris [9] = test: Systolic blood pressure after 6 hours of oral administration in renal hypertensive dogs at dose 1 mg/kg; format: functional, Canis lupus familiaris
Canis familiaris [10] = test: Heart rate after 0 hours of oral administration in renal hypertensive dogs at dose 0.25 mg/kg; format: functional, Canis lupus familiaris
Canis familiaris [11] = test: Systolic blood pressure after 4 hours of oral administration in renal hypertensive dogs at dose 0.25 mg/kg; format: functional, Canis lupus familiaris
Canis familiaris [12] = test: Systolic blood pressure after 8 hours of oral administration in renal hypertensive dogs at dose 2 mg/kg; format: functional, Canis lupus familiaris
Canis familiaris [13] = test: Peak effect after 8 hours on heart rate after 2 day of oral administration in renal hypertensive dogs at dose 0.5 mg/kg; format: functional, Canis lupus familiaris
Canis familiaris [14] = test: Systolic blood pressure after 8 hours of oral administration in renal hypertensive dogs at dose 1 mg/kg; format: functional, Canis lupus familiaris
Canis familiaris [15] = test: Systolic blood pressure after 2 hours of oral administration in renal hypertensive dogs at dose 0.25 mg/kg; format: functional, Canis lupus familiaris
Canis familiaris [16] = test: Systolic blood pressure after 0 hours of oral administration in renal hypertensive dogs at dose 1 mg/kg; format: functional, Canis lupus familiaris
Canis familiaris [17] = test: Peak effect after 8 hours on systolic blood pressure after 2 days of oral administration in renal hypertensive dogs at dose 0.5 mg/kg; format: functional, Canis lupus familiaris, Artery
Rattus norvegicus = test: Antihypertensive activity on spontaneously hypertensive rats when administered orally at a dose 50 mg/kg.; format: functional; conditions: route oral
Canis familiaris [18] = test: Heart rate after 2 hours of oral administration in renal hypertensive dogs at dose 1 mg/kg; format: functional, Canis lupus familiaris
Canis familiaris [19] = test: Heart rate after 2 hours of oral administration in renal hypertensive dogs at dose 2 mg/kg; format: functional, Canis lupus familiaris
Canis familiaris [20] = test: Peak effect after 8 hours systolic blood pressure after 3 days of oral administration in renal hypertensive dogs at dose 0.5 mg/kg; format: functional, Canis lupus familiaris, Artery
[21] = target: T1, Adrenergic receptor alpha-1 (Rattus norvegicus, UniProt P15823+P23944+P43140); test: Ability to displace [3H]prazosin from postsynaptic alpha-1 adrenergic receptor of rat in vitro.; format: protein assay
T1 sequence (P15823 whole entry): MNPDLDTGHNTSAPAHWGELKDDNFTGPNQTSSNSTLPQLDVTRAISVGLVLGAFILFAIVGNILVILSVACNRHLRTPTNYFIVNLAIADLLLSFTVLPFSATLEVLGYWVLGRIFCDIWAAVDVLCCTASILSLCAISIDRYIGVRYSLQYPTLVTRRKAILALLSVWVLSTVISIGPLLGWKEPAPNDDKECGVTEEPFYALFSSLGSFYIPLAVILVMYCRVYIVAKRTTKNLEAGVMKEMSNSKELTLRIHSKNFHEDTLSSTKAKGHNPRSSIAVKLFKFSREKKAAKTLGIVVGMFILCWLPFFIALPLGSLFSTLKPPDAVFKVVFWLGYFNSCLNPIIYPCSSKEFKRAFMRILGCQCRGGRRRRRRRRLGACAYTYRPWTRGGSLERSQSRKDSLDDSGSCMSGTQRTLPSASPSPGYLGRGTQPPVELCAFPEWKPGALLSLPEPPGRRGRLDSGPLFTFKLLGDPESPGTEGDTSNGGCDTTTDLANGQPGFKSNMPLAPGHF
T1 sequence (P23944 whole entry): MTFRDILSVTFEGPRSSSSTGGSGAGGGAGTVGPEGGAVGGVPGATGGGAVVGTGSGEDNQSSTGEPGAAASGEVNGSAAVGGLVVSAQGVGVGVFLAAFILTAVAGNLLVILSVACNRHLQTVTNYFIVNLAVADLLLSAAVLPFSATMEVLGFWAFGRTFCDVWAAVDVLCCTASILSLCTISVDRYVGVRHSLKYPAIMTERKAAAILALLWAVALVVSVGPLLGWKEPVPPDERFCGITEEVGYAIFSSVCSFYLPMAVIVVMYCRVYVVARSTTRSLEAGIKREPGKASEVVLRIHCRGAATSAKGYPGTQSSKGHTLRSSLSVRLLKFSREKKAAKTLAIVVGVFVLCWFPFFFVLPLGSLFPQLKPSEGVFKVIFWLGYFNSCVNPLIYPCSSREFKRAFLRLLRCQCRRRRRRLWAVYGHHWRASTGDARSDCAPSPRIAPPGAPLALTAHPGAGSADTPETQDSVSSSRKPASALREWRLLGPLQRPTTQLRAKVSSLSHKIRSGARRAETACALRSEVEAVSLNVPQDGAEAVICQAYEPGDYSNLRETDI
T1 sequence (P43140 whole entry): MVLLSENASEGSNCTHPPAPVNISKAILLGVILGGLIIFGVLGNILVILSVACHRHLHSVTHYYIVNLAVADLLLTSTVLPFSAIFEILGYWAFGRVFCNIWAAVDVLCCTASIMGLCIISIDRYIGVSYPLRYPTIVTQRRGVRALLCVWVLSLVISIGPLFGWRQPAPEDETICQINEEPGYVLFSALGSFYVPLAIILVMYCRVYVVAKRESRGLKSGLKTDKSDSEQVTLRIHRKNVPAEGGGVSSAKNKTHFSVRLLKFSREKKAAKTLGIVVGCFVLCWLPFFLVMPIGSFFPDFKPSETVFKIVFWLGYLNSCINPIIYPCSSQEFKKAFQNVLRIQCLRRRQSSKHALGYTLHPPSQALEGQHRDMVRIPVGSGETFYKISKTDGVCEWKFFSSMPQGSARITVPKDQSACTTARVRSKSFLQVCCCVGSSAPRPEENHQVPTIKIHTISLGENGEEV

Canis familiaris [22] = test: Heart rate after 6 hours of oral administration in renal hypertensive dogs at dose 1 mg/kg; format: functional, Canis lupus familiaris
Canis familiaris [23] = test: Peak effect after 8 hours on systolic blood pressure after 1 day of oral administration in renal hypertensive dogs at dose 0.5 mg/kg; format: functional, Canis lupus familiaris, Artery
Canis familiaris [24] = test: Heart rate after 6 hours of oral administration in renal hypertensive dogs at dose 2 mg/kg; format: functional, Canis lupus familiaris
Canis familiaris [25] = test: Heart rate after 0 hours of oral administration in renal hypertensive dogs at dose 1 mg/kg; format: functional, Canis lupus familiaris
Canis familiaris [26] = test: Systolic blood pressure after 0 hours of oral administration in renal hypertensive dogs at dose 2 mg/kg; format: functional, Canis lupus familiaris
Canis familiaris [27] = test: Systolic blood pressure after 0 hours of oral administration in renal hypertensive dogs at dose 0.25 mg/kg; format: functional, Canis lupus familiaris
Canis familiaris [28] = test: Heart rate after 4 hours of oral administration in renal hypertensive dogs at dose 2 mg/kg; format: functional, Canis lupus familiaris
Canis familiaris [29] = test: Peak effect after 8 hours on heart rate after 3 days of oral administration in renal hypertensive dogs at dose 0.5 mg/kg; format: functional, Canis lupus familiaris
Canis familiaris [30] = test: Heart rate after 2 hours of oral administration in renal hypertensive dogs at dose 0.25 mg/kg; format: functional, Canis lupus familiaris
Canis familiaris [31] = test: Heart rate after 8 hours of oral administration in renal hypertensive dogs at dose 1 mg/kg; format: functional, Canis lupus familiaris
Canis familiaris [32] = test: Heart rate after 8 hours of oral administration in renal hypertensive dogs at dose 0.25 mg/kg; format: functional, Canis lupus familiaris
Canis familiaris [33] = test: Peak effect after 8 hours on systolic blood pressure after 7 days of oral administration in renal hypertensive dogs at dose 0.5 mg/kg; format: functional, Canis lupus familiaris, Artery
Canis familiaris [34] = test: Peak effect after 8 hours on heart rate after 7 days of oral administration in renal hypertensive dogs at dose 0.5 mg/kg; format: functional, Canis lupus familiaris
Canis familiaris [35] = test: Systolic blood pressure after 4 hours of oral administration in renal hypertensive dogs at dose 1 mg/kg (mean +/- SE for 3 animals /dose); format: functional, Canis lupus familiaris
Canis familiaris [36] = test: Systolic blood pressure after 2 hr of oral administration in renal hypertensive dogs at dose 2 mg/kg; format: functional, Canis lupus familiaris
Canis familiaris [37] = test: Systolic blood pressure after 8 hours of oral administration in renal hypertensive dogs at dose 0.25 mg/kg; format: functional, Canis lupus familiaris
Canis familiaris [38] = test: Systolic blood pressure after 2 hours of oral administration in renal hypertensive dogs at dose 1 mg/kg; format: functional, Canis lupus familiaris
Canis familiaris [39] = test: Systolic blood pressure after 6 hours of oral administration in renal hypertensive dogs at dose 2 mg/kg; format: functional, Canis lupus familiaris

`Cl.Fc1ccc(-c2nn(Cc3ccccc3)c3c2CNCC3)cc1` gave a Heart rate (Canis familiaris [1]) of 110 beats min-1, a Heart rate (Canis familiaris [2]) of 90 beats min-1 and a Heart rate (Canis familiaris [3]) of 108 beats min-1. The SBP (Canis familiaris [4]) was 165 mmHg, the SBP (Canis familiaris [5]) was 188 mmHg and the Heart rate (Canis familiaris [6]) was 105 beats min-1. The Heart rate (Canis familiaris [7]) was 105 beats min-1, the Heart rate (Canis familiaris [8]) was 100 beats min-1 and the SBP (Canis familiaris [9]) was 165 mmHg. For the same molecule, the Heart rate (Canis familiaris [10]) was 110 beats min-1, the SBP (Canis familiaris [11]) was 200 mmHg and the SBP (Canis familiaris [12]) was 156 mmHg. For the same molecule, the Heart rate (Canis familiaris [13]) was 95 beats min-1, the SBP (Canis familiaris [14]) was 165 mmHg and the SBP (Canis familiaris [15]) was 202 mmHg. For the same molecule, the SBP (Canis familiaris [16]) was 200 mmHg, the SBP (Canis familiaris [17]) was 155 mmHg and the Delta p (Rattus norvegicus) was -31%. The Heart rate (Canis familiaris [18]) was 109 beats min-1, the Heart rate (Canis familiaris [19]) was 107 beats min-1 and the SBP (Canis familiaris [20]) was 160 mmHg. For the same molecule, the Ki [21] was 0.0147 µM, the Heart rate (Canis familiaris [22]) was 96 beats min-1 and the SBP (Canis familiaris [23]) was 160 mmHg. For the same molecule, the Heart rate (Canis familiaris [24]) was 97 beats min-1, the Heart rate (Canis familiaris [25]) was 107 beats min-1 and the SBP (Canis familiaris [26]) was 203 mmHg. The SBP (Canis familiaris [27]) was 200 mmHg, the Heart rate (Canis familiaris [28]) was 104 beats min-1 and the Heart rate (Canis familiaris [29]) was 105 beats min-1. For the same molecule, the Heart rate (Canis familiaris [30]) was 112 beats min-1, the Heart rate (Canis familiaris [31]) was 93 beats min-1 and the Heart rate (Canis familiaris [32]) was 109 beats min-1. For the same molecule, the SBP (Canis familiaris [33]) was 155 mmHg, the Heart rate (Canis familiaris [34]) was 95 beats min-1 and the SBP (Canis familiaris [35]) was 172 mmHg. It also gave an SBP (Canis familiaris [36]) of 183 mmHg, an SBP (Canis familiaris [37]) of 190 mmHg and an SBP (Canis familiaris [38]) of 198 mmHg. It also gave an SBP (Canis familiaris [39]) of 155 mmHg.
